Source: patent publication US10155769B2, “Fused azaheterocyclic compounds and their use as AMPA receptor modulators” (Janssen Pharmaceutica NV, priority 2016, dated 2018)

These compounds were tested against GluA1o-γ8 (Homo sapiens (Human), UniProt P42261+Q8WXS5) (assay: Calcium flux assay (FLIPR), inhibition of TARP γ8 dependent AMPA receptor activity). Settings: HEK293 cells stably expressing GRIA1o-CACNG8 fusion construct; calcium flux following 15 μM glutamate; negative log of IC50 in molar.
Sequence of GluA1o-γ8 (P42261 other isoform, or with tags, fused parts or gaps): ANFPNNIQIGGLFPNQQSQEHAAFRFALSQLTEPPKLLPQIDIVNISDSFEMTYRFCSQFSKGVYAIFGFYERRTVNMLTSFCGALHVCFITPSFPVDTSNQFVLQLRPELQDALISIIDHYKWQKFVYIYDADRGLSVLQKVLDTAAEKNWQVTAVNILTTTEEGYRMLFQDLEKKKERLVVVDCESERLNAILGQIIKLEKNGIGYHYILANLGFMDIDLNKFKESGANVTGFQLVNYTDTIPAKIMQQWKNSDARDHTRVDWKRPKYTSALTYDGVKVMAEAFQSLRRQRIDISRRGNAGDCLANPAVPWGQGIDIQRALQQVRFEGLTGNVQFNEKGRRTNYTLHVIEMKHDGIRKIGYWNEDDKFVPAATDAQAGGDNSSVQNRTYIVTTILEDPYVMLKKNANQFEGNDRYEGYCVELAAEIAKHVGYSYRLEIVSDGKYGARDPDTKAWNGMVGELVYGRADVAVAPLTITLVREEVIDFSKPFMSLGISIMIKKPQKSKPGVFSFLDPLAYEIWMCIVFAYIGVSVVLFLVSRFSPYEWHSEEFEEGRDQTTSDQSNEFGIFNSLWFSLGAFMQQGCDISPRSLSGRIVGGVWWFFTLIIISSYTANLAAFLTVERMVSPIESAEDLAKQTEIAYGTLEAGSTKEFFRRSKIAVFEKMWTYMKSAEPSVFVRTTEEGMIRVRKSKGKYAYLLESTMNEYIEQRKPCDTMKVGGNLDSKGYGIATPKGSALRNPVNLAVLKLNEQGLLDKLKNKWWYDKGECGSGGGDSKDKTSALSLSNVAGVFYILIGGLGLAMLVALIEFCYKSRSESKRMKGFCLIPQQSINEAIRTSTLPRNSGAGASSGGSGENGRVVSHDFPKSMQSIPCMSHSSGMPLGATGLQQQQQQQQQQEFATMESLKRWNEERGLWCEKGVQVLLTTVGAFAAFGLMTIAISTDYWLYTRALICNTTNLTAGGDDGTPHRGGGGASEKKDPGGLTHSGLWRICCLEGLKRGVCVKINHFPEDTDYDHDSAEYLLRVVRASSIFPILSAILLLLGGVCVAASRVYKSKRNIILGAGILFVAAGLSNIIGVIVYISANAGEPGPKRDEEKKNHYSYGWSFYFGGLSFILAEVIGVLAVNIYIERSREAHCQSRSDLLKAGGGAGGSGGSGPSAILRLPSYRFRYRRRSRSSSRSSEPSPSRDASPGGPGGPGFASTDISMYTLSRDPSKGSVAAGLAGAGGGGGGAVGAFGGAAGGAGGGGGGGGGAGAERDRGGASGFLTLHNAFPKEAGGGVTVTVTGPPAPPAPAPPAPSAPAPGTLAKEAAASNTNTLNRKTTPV
Assay type: cell-based
Source text: This assay was used to test compounds for their ability to inhibit TARP γ8 dependent AMPA receptor activity. The AMPA receptor is a non-selective cation channel activated by glutamate. Ionotropic glutamate receptors normally desensitize too rapidly to allow detectable calcium influx in a FLIPR assay (Strange et al. (2006). “Functional characterisation of homomeric ionotropic glutamate receptors GluR1-GluR6 in a fluorescence-based high throughput screening assay.” Comb Chem High Throughput Screen 9(2): 147-158). But, this desensitization is incomplete, and a substantial steady-state current remains in the sustained presence of glutamate (Cho et al. (2007). “Two families of TARP isoforms that have distinct effects on the kinetic properties of AMPA receptors and synaptic currents.” Neuron 55(6): 890-904).
An in vitro assay was used to determine the potency of test compounds as inhibitors of the glutamate response of the channel formed by GluA1o-γ8. To ensure a 1:1 stoichiometry of GluA1o and γ8 subunits in the expressed channel, a fusion of the cDNAs for GRIA1o and CACNG8 was used. Following Shi et al (2009) “The stoichiometry of AMPA receptors and TARPs varies by neuronal cell type.” Neuron 62(5): 633-640), the C-terminus of the cDNA for GRIA1o was fused to the N-terminus of the cDNA for γ8. The linker sequence was QQQQQQQQQQEFAT. Channels expressed with this construct appear to have similar properties to channels formed by co-expression of GRIA1o with an excess of CACNG8 (Shi et al. 2009). A clonal cell line in HEK293 cells stably expressing this construct, with a geneticin selection marker, was generated for use in this assay.
Cell expressing the GRIA1o-CACNG8 fusion construct were grown in a monolayer in 96- or 384-well microtiter plates. They were washed with assay buffer (135 mM NaCl, 4 mM KCl, 3 mM CaCl2, 1 mM MgCl2, 5 mM glucose, 10 mM HEPES, pH 7.4, 300 mOs) using a Biotek EL405 plate washer. The cells were then loaded with a calcium-sensitive dye (Calcium-5 or Calcium-6, Molecular Devices) and the test compounds at a range of concentrations. Calcium flux following the addition of 15 μM glutamate was monitored using a Molecular Devices FLIPR Tetra.
The fluorescence in each well was normalized to the fluorescence of negative and positive control wells. The negative control wells had no added compounds, and the positive control wells had been incubated with 10 μM CP465022 (a non-subtype-selective AMPA receptor antagonist) (Lazzaro et al. (2002). “Functional characterization of CP-465,022, a selective, noncompetitive AMPA receptor antagonist.” Neuropharmacology 42(2): 143-153). The responses to glutamate as functions of the test compound concentrations were fitted to a four-parameter logistic function. The fitted parameter corresponding to the midpoint was taken to be the potency of inhibition of the compound. The data in Table 4 below illustrates the observed potency for the compounds described herein. pIC50 refers to the negative log of the IC50 in molar.

SMILES | pIC50
Cc1cc(-c2c(C(F)(F)F)ccn3nc(C4CC4)nc23)cc2cn[nH]c12 [Example 31, 2-Cyclopropyl-8-(7-methyl-1H-indazol-5-yl)-7-(trifluoromethyl)-[1,2,4]triazolo[1,5-a]pyridine] | 9.7
Cc1nc2c(-c3cc(C)c4[nH]ncc4c3)c(C(F)(F)F)ccn2n1 [Example 33, 2-Methyl-8-(7-methyl-1H-indazol-5-yl)-7-(trifluoromethyl)-[1,2,4]triazolo[1,5-a]pyridine] | 7.9
CCc1nc2c(-c3cc(C)c4[nH]ncc4c3)c(C(F)(F)F)ccn2n1 [Example 35, 2-Ethyl-8-(7-methyl-1H-indazol-5-yl)-7-(trifluoromethyl)-[1,2,4]triazolo[1,5-a]pyridine] | 8.8
CCc1nc2c(-c3cc(C)c4c(c3)CC(=O)N4)c(C(F)(F)F)ccn2n1 [Example 36, 5-[2-Ethyl-7-(trifluoromethyl)-[1,2,4]triazolo[1,5-a]pyridin-8-yl]-7-methyl-indolin-2-one] | 8.7
CC(C)c1nc2c(-c3cc(Cl)c4[nH]ncc4c3)c(C(F)(F)F)ccn2n1 [Example 37, 8-(7-Chloro-1H-indazol-5-yl)-2-isopropyl-7-(trifluoromethyl)-[1,2,4]triazolo[1,5-a]pyridine] | 9.9
Cc1cc(-c2c(C(F)(F)F)ccn3nc(C(C)C)nc23)cc2cn[nH]c12 [Example 38, 2-Isopropyl-8-(7-methyl-1H-indazol-5-yl)-7-(trifluoromethyl)-[1,2,4]triazolo[1,5-a]pyridine] | 8.7
Cc1cc(-c2c(C(F)(F)F)ccn3nc(C(C)C)nc23)cc2c1NC(=O)C2 [Example 39, 5-[2-Isopropyl-7-(trifluoromethyl)-[1,2,4]triazolo[1,5-a]pyridin-8-yl]-7-methyl-indolin-2-one] | 9.2
Cc1ccn2nc(C(C)C)nc2c1-c1cc(C)c2[nH]ncc2c1 [Example 40, 2-Isopropyl-7-methyl-8-(7-methyl-1H-indazol-5-yl)-[1,2,4]triazolo[1,5-a]pyridine] | 6.9
FC(F)(F)c1nc2c(-c3cc(Cl)c4[nH]ncc4c3)c(Cl)ccn2n1 [Example 41, 7-Chloro-8-(7-chloro-1H-indazol-5-yl)-2-(trifluoromethyl)-[1,2,4]triazolo[1,5-a]pyridine] | 9.0
Fc1ccc(-c2ccn3nc(C(F)(F)F)nc3c2-c2ccc3[nH]nc(F)c3c2)cc1 [Example 45, 8-(3-Fluoro-1H-indazol-5-yl)-7-(4-fluorophenyl)-2-(trifluoromethyl)-[1,2,4]triazolo[1,5-a]pyridine] | 7.6
COCc1nc2c(-c3cc(C)c4[nH]ncc4c3)c(-c3ccc(F)cc3)ccn2n1 [Example 47, 7-(4-Fluorophenyl)-2-(methoxymethyl)-8-(7-methyl-1H-indazol-5-yl)-[1,2,4]triazolo[1,5-a]pyridine] | 8.7
Cc1cc(-c2c(C(C)C)ccn3nc(C(F)(F)F)nc23)cc2cn[nH]c12 [Example 49, 7-Isopropyl-8-(7-methyl-1H-indazol-5-yl)-2-(trifluoromethyl)-[1,2,4]triazolo[1,5-a]pyridine] | 10.5
Cc1ccn2cc(C(F)(F)F)nc2c1-c1ccc2[nH]ncc2c1 [Example 50, 8-(1H-Indazol-5-yl)-7-methyl-2-(trifluoromethyl)imidazo[1,2-a]pyridine] | 7.2
Cc1ccn2cc(C(F)(F)F)nc2c1-c1cc(F)c2c(c1)CC(=O)N2 [Example 51, 7-Fluoro-5-[7-methyl-2-(trifluoromethyl)imidazo[1,2-a]pyridin-8-yl]indolin-2-one] | 7.2
Cc1ccn2cc(C(F)(F)F)nc2c1-c1cc(C)c2[nH]ncc2c1 [Example 52, 7-Methyl-8-(7-methyl-1H-indazol-5-yl)-2-(trifluoromethyl)imidazo[1,2-a]pyridine] | 8.0
Cc1ccn2cc(-c3ccccc3)nc2c1-c1cc(C)c2[nH]ncc2c1 [Example 56, 7-Methyl-8-(7-methyl-1H-indazol-5-yl)-2-phenyl-imidazo[1,2-a]pyridine] | 7.9
COc1ccn2cc(C(F)(F)F)nc2c1-c1cc(C)c2c(c1)CC(=O)N2 [Example 58, 5-[7-Methoxy-2-(trifluoromethyl)imidazo[1,2-a]pyridin-8-yl]-7-methyl-indolin-2-one] | 7.8
COc1ccn2cc(C(F)(F)F)nc2c1-c1cc(C)c2[nH]ncc2c1 [Example 59, 7-Methoxy-8-(7-methyl-1H-indazol-5-yl)-2-(trifluoromethyl)imidazo[1,2-a]pyridine] | 8.1
Cc1cc(-c2c(C(F)(F)F)ccn3cc(C(F)(F)F)nc23)cc2cn[nH]c12 [Example 62, 5-(2,7-Bis(trifluoromethyl)imidazo[1,2-a]pyridin-8-yl)-7-methyl-1H-indazole] | 9.5

Now from value to compound:

pIC50 | SMILES
8.3 | Cc1nc2c(-c3cc(Cl)c4[nH]ncc4c3)c(C(F)(F)F)ccn2n1 [Example 32, 8-(7-Chloro-1H-indazol-5-yl)-2-methyl-7-(trifluoromethyl)-[1,2,4]triazolo[1,5-a]pyridine]
9.4 | CCc1nc2c(-c3cc(Cl)c4[nH]ncc4c3)c(C(F)(F)F)ccn2n1 [Example 34, 8-(7-Chloro-1H-indazol-5-yl)-2-ethyl-7-(trifluoromethyl)-[1,2,4]triazolo[1,5-a]pyridine]
9.0 | Fc1ccc(-c2ccn3nc(C(F)(F)F)nc3c2-c2cc(F)c3[nH]ncc3c2)cc1 [Example 42, 7-(4-Fluorophenyl)-8-(7-fluoro-1H-indazol-5-yl)-2-(trifluoromethyl)-[1,2,4]triazolo[1,5-a]pyridine]
11.0 | Fc1ccc(-c2ccn3nc(C(F)(F)F)nc3c2-c2cc(Cl)c3[nH]ncc3c2)cc1 [Example 43, 7-(4-Fluorophenyl)-8-(7-chloro-1H-indazol-5-yl)-2-(trifluoromethyl)-[1,2,4]triazolo[1,5-a]pyridine]
10.5 | Cc1cc(-c2c(-c3ccc(F)cc3)ccn3nc(C(F)(F)F)nc23)cc2cn[nH]c12 [Example 44, 7-(4-Fluorophenyl)-8-(7-methyl-1H-indazol-5-yl)-2-(trifluoromethyl)-[1,2,4]triazolo[1,5-a]pyridine]
10.5 | Cc1cc(-c2c(-c3ccc(F)cc3)ccn3nc(C(F)F)nc23)cc2cn[nH]c12 [Example 46, 2-(Difluoromethyl)-7-(4-fluorophenyl)-8-(7-methyl-1H-indazol-5-yl)-[1,2,4]triazolo[1,5-a]pyridine]
10.1 | Cc1cc(-c2c(-c3ccc(F)cc3)ccn3nc(C4CC4)nc23)cc2cn[nH]c12 [Example 48, 2-Cyclopropyl-7-(4-fluorophenyl)-8-(7-methyl-1H-indazol-5-yl)-[1,2,4]triazolo[1,5-a]pyridine]
7.5 | Cc1ccn2cc(C(C)(C)C)nc2c1-c1cc(C)c2[nH]ncc2c1 [Example 53, 2-tert-Butyl-7-methyl-8-(7-methyl-1H-indazol-5-yl)imidazo[1,2-a]pyridine]
7.1 | Cc1cc(-c2c(C)ccn3cc(C(C)(C)C)nc23)cc2c1NC(=O)C2 [Example 54, 5-(2-tert-Butyl-7-methyl-imidazo[1,2-a]pyridin-8-yl)-7-methyl-indolin-2-one]
7.4 | Cc1cc(-c2c(C)ccn3cc(-c4ccccc4)nc23)cc2c1NC(=O)C2 [Example 55, 7-Methyl-5-(7-methyl-2-phenyl-imidazo[1,2-a]pyridin-8-yl)indolin-2-one]
7.6 | Cc1ccn2cc(C3CC3)nc2c1-c1cc(C)c2[nH]ncc2c1 [Example 57, 2-Cyclopropyl-7-methyl-8-(7-methyl-1H-indazol-5-yl)imidazo[1,2-a]pyridine]
9.0 | Cc1cc(-c2c(Cl)ccn3cc(C(F)(F)F)nc23)cc2cn[nH]c12 [Example 60, 7-Chloro-8-(7-methyl-1H-indazol-5-yl)-2-(trifluoromethyl)imidazo[1,2-a]pyridine]
7.5 | FC(F)(F)c1cn2ccc(C(F)(F)F)c(-c3ccc4[nH]ncc4c3)c2n1 [Example 61, 5-(2,7-Bis(trifluoromethyl)imidazo[1,2-a]pyridin-8-yl)-1H-indazole]
